Where a name gives a salt, the structure may show the parent alone.
Legend:
motility = test: Examination of Locomotive Stimulating Effect on Motility Test
Experimental: b. Examination of Locomotive Stimulating Effect on Motility Test
The tests were performed on white mice. An intraperitoneal dosage of 500 mg./kg. of L-Dopa was administered 30 minutes after the pre-treatment with Cyproheptadine hydrochloride.

[1] = tested on: Oxotremorine-induced tremor; test: Inhibition of Oxotremorine-induced Tremor; type: in vivo, mice; conditions: for ED50 found: 30 min; for ED50 calculated: expected from isobole
Experimental: The tests were performed on mice of both sexes, each weighing 20 to 30 g. The groups consisted of 20 animals each. The test animals were treated orally with varying amounts of Cyproheptadine hydrochloride or L-Dopa, respectively.
30 minutes after the administration of L-Dopa, varying amounts of Cyproheptadine hydrochloride were introduced, and after further 30 minutes the animals were treated with a standard dosage of Oxotremorine.
In a further series of tests the animals were treated with 1 mg./kg. of Cyproheptadine hydrochloride. 30 minutes after the administration of Cyproheptadine hydrochloride, L-Dopa was introduced in varying amounts, and after a further period of 30 minutes the animals were treated with a standard dosage of Oxotremorine.
The expected ED50 values were determined by constructing an isobole, and the expected values were compared to the observed ones.

hexobarbital narcosis = test: Examination of Sedative Effects, Hexobarbital Narcosis Test; conditions: for Positive animals/treated animals: positive = sleep higher by at least 150% than control
Experimental: The side effects of the individual active agents as well as those of the compositions were examined as follows:
Examination of Sedative Effects on Mice, According to the Hexobarbital Narcosis Test
The compounds to be tested were suspended in water containing Tween 80, and 20 ml./kg. dosages of the obtained suspensions were administered orally to the test animals.

[2] = Toxicity Tests (oral, individual and joint toxicity); conditions: mouse, in vivo, po; for mortality at 72 h: Perishment, %
Experimental: (§1) The toxicities of the individual components were determined separately on mice. The active agents were suspended in water containing Tween 80, and the suspension was administered orally to the animals in a dosage of 20 ml./kg. The animals were kept under observation for 72 hours. The poisoned animals perished within 48 hours.
(§2) The joint toxicity of the individual active agents was determined as follows:
(§3) a. The animals were treated with 1 g/kg. of L-Dopa. 1 hour after the administration of L-Dopa, the animals were treated with varying amounts of Cyproheptadine hydrochloride.
(§4) b. The animals were treated with 2 g./kg. of L-Dopa, and varying amounts of Cyproheptadine hydrochloride were administered subsequently.
(§5) c. The animals were treated with 3 g./kg. of L-Dopa, and subsequently Cyproheptadine hydrochloride was administered in varying amounts.
(§6) In order to evaluate the changes in toxicity, the expected toxicities of the compositions listed below were determined by constructing an isobole, and the calculated data were compared to the observed ones.

mice = test: as above
Experimental: as §1, §2, §3, §4, §5, §6

[3] = tested on: Perphenazine-induced catalepsy; test: Antagonism of Perphenazine-induced Catalepsy; type: in vivo, white rats
Experimental: The synergistic increase in the antiparkinson effect was investigated by studying the inhibition of Oxotremorine-induced tremor and the antagonism of Perphenazine-induced catalepsy.
The tests were performed on white rats of both sexes, each weighing 150 to 200 g. The animals were treated orally with varying amounts of Cyproheptadine hydrochloride or L-Dopa, respectively, and 30 minutes after the introduction of the active agents the animals were treated with a standard dosage of Perphenazine [2-chloro-10-(3-/4-(2-hydroxy-ethyl)-1-piperazinyl/-propyl)-phenothiazine]. The percentage of catalepsy inhibition was examined as a function of the time.
The interaction of the active agents was studied on white rats, according to the method described above. Cyproheptadine hydrochloride was administered in oral dosages of 2 or 4 mg./kg., respectively. 30 minutes after the introduction of Cyproheptadine hydrochloride the animals were treated with varying amounts of L-Dopa, and after an additional period of 30 minutes the animals were treated with a standard dosage of Perphenazine.

[4] = physiological saline p.o. + L-Dopa 500 mg./kg. i.p.
[5] = L-Dopa after 1 mg./kg. Cyproheptadine HCl
[6] = Cyproheptadine HCl 2.5 mg./kg. p.o. + physiological saline i.p.
[7] = Cyproheptadine hydrochloride after 200 mg./kg. L-Dopa
[8] = Cyproheptadine hydrochloride 10 mg./kg. oral
[9] = Cyproheptadine hydrochloride 20 mg./kg. oral
[10] = Table 5, Cyproheptadine HCl 2 mg./kg. alone
[11] = Table 5, Cyproheptadine HCl 4 mg./kg. alone

Compound: N[C@@H](Cc1ccc(O)c(O)c1)C(=O)O [L-Dopa, L-3,4-dihydroxyphenylalanine]
- Average No. of light interruptions (motility; [4]): 465
- Change % (motility; [4]): +105%
- Inhibition, % ([1]; L-Dopa 50 mg./kg. after 1 mg./kg. Cyproheptadine hydrochloride): 15%
- Inhibition, % ([1]; L-Dopa 100 mg./kg. after 1 mg./kg. Cyproheptadine hydrochloride): 52.5%
- Inhibition, % ([1]; L-Dopa 200 mg./kg. after 1 mg./kg. Cyproheptadine hydrochloride): 67.5%
- Inhibition, % ([1]; L-Dopa 400 mg./kg. after 1 mg./kg. Cyproheptadine hydrochloride): 85%
- Difference (percentage deviation of ED50 calculated vs. found) [1, 5]: +117%
- ED50 found [1, 5]: 120 mg/kg
- ED50 calculated [1, 5]: 260 mg/kg
- % positive animals (hexobarbital narcosis; 520 mg./kg. oral): 0%
- % positive animals (hexobarbital narcosis; 800 mg./kg. oral): 16.6%
- % positive animals (hexobarbital narcosis; 1200 mg./kg. oral): 83%
- LD50 at 72 h [2]: 4200 mg/kg
- influence on toxicity of the other agent (in words) (mice; pre-treatments with 1 and 2 g./kg. of L-dopa): hardly influence the toxicity of Cyproheptadine hydrochloride
- Percentage inhibition after 0.5 hours ([3]; L-Dopa 100 mg./kg. oral): 2%
- Percentage inhibition after 1 hours ([3]; L-Dopa 100 mg./kg. oral): 15%
- Percentage inhibition after 2 hours ([3]; L-Dopa 100 mg./kg. oral): 18%
- Percentage inhibition after 3 hours ([3]; L-Dopa 100 mg./kg. oral): 18%
- Percentage inhibition after 4 hours ([3]; L-Dopa 100 mg./kg. oral): 10%
- Percentage inhibition after 0.5 hours ([3]; L-Dopa 200 mg./kg. oral): 0%
- Percentage inhibition after 1 hours ([3]; L-Dopa 200 mg./kg. oral): 23%
- Percentage inhibition after 2 hours ([3]; L-Dopa 200 mg./kg. oral): 23%
- Percentage inhibition after 3 hours ([3]; L-Dopa 200 mg./kg. oral): 3%
- Percentage inhibition after 4 hours ([3]; L-Dopa 200 mg./kg. oral): 5%
- Percentage inhibition after 0.5 hours ([3]; L-Dopa 400 mg./kg. oral): 27%
- Percentage inhibition after 1 hours ([3]; L-Dopa 400 mg./kg. oral): 33%
- Percentage inhibition after 2 hours ([3]; L-Dopa 400 mg./kg. oral): 32%
- Percentage inhibition after 3 hours ([3]; L-Dopa 400 mg./kg. oral): 20%
- Percentage inhibition after 4 hours ([3]; L-Dopa 400 mg./kg. oral): 10%

Compound: CN1CCC(=C2c3ccccc3C=Cc3ccccc32)CC1 [Cyproheptadine HCl]
- Average No. of light interruptions (motility; [6]): 145
- Change % (motility; [6]): -36%
- influence on locomotive stimulating effect of L-Dopa (in words) (motility; in the tested dosages, conclusion from Table 9): does not influence the locomotive stimulating effect of L-Dopa
- Inhibition, % ([1]; 0.2 mg./kg. after 200 mg./kg. L-Dopa pre-treatment): 0%
- Inhibition, % ([1]; 0.4 mg./kg. after 200 mg./kg. L-Dopa pre-treatment): 20%
- Inhibition, % ([1]; 0.8 mg./kg. after 200 mg./kg. L-Dopa pre-treatment): 50%
- Inhibition, % ([1]; 1.6 mg./kg. after 200 mg./kg. L-Dopa pre-treatment): 90%
- Difference (percentage deviation of ED50 calculated vs. found) [1, 7]: +107%
- ED50 found [1, 7]: 0.7 mg/kg
- ED50 ([1]; Mus musculus, 0.5 h, Cyproheptadine hydrochloride alone, oral, 30 min before Oxotremorine): 3 mg/kg
- ED50 calculated [1, 7]: 1.45 mg/kg
- % positive animals (hexobarbital narcosis; 2.5 mg./kg. oral): 33%
- Positive animals/treated animals (hexobarbital narcosis; 2.5 mg./kg. oral): 6/18
- % positive animals (hexobarbital narcosis; 5.0 mg./kg. oral): 66%
- Positive animals/treated animals (hexobarbital narcosis; 5.0 mg./kg. oral): 4/6
- % positive animals (hexobarbital narcosis; 10.0 mg./kg. oral): 83%
- Positive animals/treated animals (hexobarbital narcosis; 10.0 mg./kg. oral): 5/6
- LD50 at 72 h [2]: 135 mg/kg
- mortality at 72 h ([2]; 40 mg/kg, 40 mg./kg., after 3 g./kg. L-Dopa): 5%
- mortality at 72 h ([2]; 60 mg/kg, 60 mg./kg., after 2 g./kg. L-Dopa): 0%
- mortality at 72 h ([2]; 60 mg/kg, 60 mg./kg., after 3 g./kg. L-Dopa): 25%
- mortality at 72 h ([2]; 90 mg/kg, 90 mg./kg., 1 hour after 1 g/kg. L-Dopa): 10%
- mortality at 72 h ([2]; 90 mg/kg, 90 mg./kg., after 2 g./kg. L-Dopa): 10%
- mortality at 72 h ([2]; 90 mg/kg, 90 mg./kg., after 3 g./kg. L-Dopa): 45%
- mortality at 72 h ([2]; 200 mg/kg, 200 mg./kg., 1 hour after 1 g/kg. L-Dopa): 70%
- mortality at 72 h ([2]; 200 mg/kg, 200 mg./kg., after 2 g./kg. L-Dopa): 85%
- mortality at 72 h ([2]; 200 mg/kg, 200 mg./kg., after 3 g./kg. L-Dopa): 75%
- mortality at 72 h ([2]; 300 mg/kg, 300 mg./kg., 1 hour after 1 g/kg. L-Dopa): 95%
- Perished animals/treated animals (mice; 40 mg./kg., after 3 g./kg. L-Dopa): 1/20
- Perished animals/treated animals (mice; 60 mg./kg., after 2 g./kg. L-Dopa): 0/20
- Perished animals/treated animals (mice; 60 mg./kg., after 3 g./kg. L-Dopa): 5/20
- Perished animals/treated animals (mice; 90 mg./kg., 1 hour after 1 g/kg. L-Dopa): 2/20
- Perished animals/treated animals (mice; 90 mg./kg., after 2 g./kg. L-Dopa): 2/20
- Perished animals/treated animals (mice; 90 mg./kg., after 3 g./kg. L-Dopa): 9/20
- Perished animals/treated animals (mice; 200 mg./kg., 1 hour after 1 g/kg. L-Dopa): 14/20
- Perished animals/treated animals (mice; 200 mg./kg., after 2 g./kg. L-Dopa): 17/20
- Perished animals/treated animals (mice; 200 mg./kg., after 3 g./kg. L-Dopa): 15/20
- Perished animals/treated animals (mice; 300 mg./kg., 1 hour after 1 g/kg. L-Dopa): 19/20
- Percentage inhibition after 0.5 hours [3, 8]: 89%
- Percentage inhibition after 1 hours [3, 8]: 72%
- Percentage inhibition after 2 hours [3, 8]: 61%
- Percentage inhibition after 3 hours [3, 8]: 57%
- Percentage inhibition after 0.5 hours [3, 9]: 76%
- Percentage inhibition after 1 hours [3, 9]: 77%
- Percentage inhibition after 2 hours [3, 9]: 73%
- Percentage inhibition after 3 hours [3, 9]: 59%
- Percentage inhibition after 0.5 hours [3, 10]: 37%
- Percentage inhibition after 1 hours [3, 10]: 8%
- Percentage inhibition after 2 hours [3, 10]: 14%
- Percentage inhibition after 3 hours [3, 10]: 8%
- Percentage inhibition after 0.5 hours [3, 11]: 20%
- Percentage inhibition after 1 hours [3, 11]: 10%
- Percentage inhibition after 2 hours [3, 11]: 14%
- Percentage inhibition after 3 hours [3, 11]: 18%

Reference: patent US3988461A, “Pharmaceutical composition for the treatment of Parkinson's disease” (priority 1974, dated 1976)
